US10827753B2, “Compositions and methods for controlling nematodes” (Monsanto Technology LLC, priority 2007, dated 2020)
Marks after values point to notes of the source that are not given here.

Assays:
[1] = system: sting (Belonolaimus longicaudatus) nematodes; test: Sting nematode bench top soil assay; type: in vivo
Experimental: Populations of sting (Belonolaimus longicaudatus) nematodes are maintained on St. Augustine turf grass on soil in 15-cm pots. At test initiation the turf is removed from the pots and the soil containing nematode eggs, juveniles, and adults is subdivided into pots each containing a volume of 125 cm^3′ The compounds to be tested are dissolved in 3 ml of acetone using 3, 6, or 15 mg to achieve equivalent surface area application rates of 2, 4, or 10 kg/ha, respectively. The 3 ml acetone stock solution is added to 30 ml of water, and 5 ml of that solution is used to drench each of 6 replicate test pots prepared as described above. The treated pots containing nematodes are incubated in the laboratory at ambient temperature of approximately 25° C. After 3 days the soil from each pot is washed onto a modified Baermann apparatus comprised of a screen supporting a layer of filter paper on which the soil sample is placed and set in a dish of water. The samples are then incubated at 25° C. for 24 hours to allow the live nematodes to migrate through the paper and screen and into a water reservoir to be collected for counting with a light microscope. Nematodes that have been killed or immobilized by the test compounds are not able to migrate into the reservoir.

Meloidogyne incognita [2] = test: Fall nematicidal field testing on squash microplots; type: in vivo
Description: The test site was located at 3511 Highway F in New Melle, Mo., Saint Charles county. The soil was a native prairie/pasture covering silty clay loam soil. Holes were dug using a Bobcat 763 skid loader with a 12-inch auger to a depth of 18 inches. Total volume of each hole was about 1.2 cubic feet. Six cubic yards of topsoil and 9 tons of river sand were purchased from Dardenne Farms Topsoil. Mixing to a ratio of 4 volumes sand to 1 volume soil was accomplished using a trailer-mounted 9 cubic foot concrete mixer. Holes were filled and then re-filled 5 days later after settling. The mixture was 92.5% sand, 2.5% silt, and 5% clay. Organic matter was 0.2% and pH was 6.8.
Treatments were arranged in a block design with the blocks laid out perpendicular to the primary slope and parallel to secondary slope. There are 7 inoculated controls and 5 non-inoculated controls and the distributions of disease severity appeared independent of location.
Application rates are expressed as kg of active material per hectare, and the mg per plot is based on the surface area of the bored and filled holes (0.000008559 Ha). The DC compounds were formulated immediately before application as follows: 1) the amount required to treat all six replicates was dissolved in 300 ml of acetone, 2) for each plot 50 ml of that solution was added to a graduated cylinder with 2 ml of 12.5% Triton X100 and the volume was raised to 500 ml with tap water. The resultant mix is the same as used in the standard greenhouse assays (10% acetone, 0.05%×100). The oxamyl treatments were prepared from Vydate 2 L formulated the same way. The 500 ml was placed in a watering can and the entire volume was evenly sprinkled over the surface of the plot. No runoff occurred and pooling, if any, was short lived. The final drench volume was 0.58 ml/cm^2, compared to 0.2 ml/cm^2 used in our greenhouse, however the microplots are much deeper so the drench volume applied per soil volume treated is roughly the same.
Meloidogyne incognita eggs were harvested over a two week period and stored at approximately 5° C. until needed. A stock of 5.6 million vermiform eggs was adjusted to 9000/ml in 620 ml. One day after treatment, two holes were made in each plot about 7 cm apart and equidistant from the squash plants. Five ml of egg suspension was pipetted into each hole, which was then sealed and the plot lightly watered. A total of 90,000 vermiform eggs were added to each plot.
The first root evaluation was at 28 DAT. The tops were cut off and weighed immediately in the field, and the roots were carefully dug out so as not to disturb the remaining plant.

Meloidogyne incognita [3] = test: M. incognita miniaturized greenhouse assay on cucumber seedlings (root galling); type: in vivo; parameters: key to 1 ppm gall ratings / 1 ppm gall rating: mean of 3 gall ratings: 0=0-5%, 1=6-20%, 2=21-50%, 3=51-100% root galled
Experimental: The test compound is dissolved in an acetone solution and added to water. A sprouted cucumber seedling is placed into a vial with dry sand and the water-chemical solution is added immediately. Twenty four hours later Meloidogyne incognita eggs are added to the vials and 10 to 12 days later the roots are evaluated for nematode galling.
Cucumber seeds are sprouted for 3 days in moist paper towels. Acceptable sprouts should be 3 to 4 cm long with several lateral roots just emerging. Stock solutions of chemistry are prepared in a mixture of acetone and Triton X100 (412 mg in 500 mL) to a final concentration of 5 mg/mL. The chemical stock solution is then added to 10 mL deionized water plus 0.015% Triton X100 and mixed thoroughly. This is enough to test each condition in triplicate. Ten mL dry sand is added to each vial. At this time the solubility of the chemistry is visually determined and recorded as either ppt (large precipitates) or cloudy (fine precipitates). Seedlings are planted by tilting the vial and laying the seedling in the correct orientation so that the cotyledons are just above the sand and then tilting back to cover the radicles with sand. 3.3 ml water/chemical mix is added to each vial and the vials placed in racks under fluorescent light banks. The vials are inoculated two days after planting by adding 500 vermiform M. incognita eggs to each vial in 50 uL of deionized or spring water. The vials are then kept under the fluorescent lamps at ambient room temperature and watered as needed with 1 mL deionized water, usually twice during duration of test. Harvest of the cucumber plants is done 10 to 12 days after inoculation by washing sand off the roots. A root gall rating and visual phytotoxicity rating is assigned using the following scales: Gall rating scale (Gall: % root mass galled): 0=0-5%; 1=6-20%; 2=21-50%; and 3=51-100%. The average of the triplicate gall rating is then calculated: green=0.00-0.33 (no galls); yellow=0.67-1.33 (mild galling); orange=1.67-2.33 (moderate galling); red=2.67-3.00 (severe galling). Visual phytotoxicity scale is also assigned (Vis. tox; visual reduction in root mass compared to the control): rs1=mild stunting; rs2=moderate stunting; rs3=severe stunting.

C. elegans = test: Three day C. elegans well assay; type: in vivo; settings: for EC50 L4 1D / EC50 L1 1D: one day of exposure; for EC50 L1 1D: L1 larvae
Experimental: Various compounds were tested for nematicidal activity against C. elegans using contact assays in wells. The assays were performed as described below. The test compounds were solubilized in DMSO at 10 mg/ml to create 100× stock solutions. A dilution series was created by diluting the stock solution with DMSO. For each well assay 4 ul of the appropriate dilution is added to a well of a test plate. A 400 ul aliquot of bacterial stock (in M9 buffer with ampicillin and nystatin) are added to each well of the test plate. Worms are added and the test plate placed on a rotary shaker and held at 20° C. Worms are examined and scored at 4 hrs, 24 hrs, 48 hrs and 72 hours. L1 worms and L4 worms were used in the assay. L1 worms are prepared by plating eggs on a plate without a bacterial feeding layer. The eggs hatch and arrest at the L1 stage. This L1 stage population is then used to create a stock for the experiments. To create an L4 stage stock a small number of worms are taken from an overgrown and starved plate of worms and seeded on a plate with a bacterial feeder layer. A 25 ul aliquot of worms is added to each well in the assay.

root knot nematode (RKN) = test: RKN greenhouse soil assay on cucumber plants; type: in vivo, Meloidogyne incognita; settings: 0 day treatment, test c
Description: Cucumber seeds are planted in a sandy soil mixture in two inch square plastic pots. When the cotyledons are fully opened and just as the first leaf begins to emerge, usually 7 days after planting, chemistry for the 7 day treatment is applied. One week later the chemistry for the 0 day treatment is applied. Separate plants are used for each application. The plants are generally in the 1-2 leaf stage now. At least four hours after the chemistry application the pots are inoculated with root knot nematode (RKN) eggs. Plants are rated for galling 14 days after the egg inoculation.
One milligram of chemistry per four pots is equal to one kilogram per hectare of chemical. A standard test uses four replications. For rates above 2 kg/ha, the desired amount of chemical is weighed into a 30 ml vial (example: 8 kg/ha rate=8 mg chemical in 30 ml vial). The chemical is dissolved in 2 ml of appropriate solvent, generally acetone. For rates below 2 kg/ha, 2 milligrams of chemistry is weighed into the vial and dissolved in 2 ml of the solvent. The appropriate amount of chemical concentrate is then pipetted into a separate 30 ml vial and solvent is added to bring the volume to 2 ml (example 0.5 kg/ha=0.5 ml of concentrate+1.5 ml solvent). Each dissolved concentrate is then brought to a total of 20 milliliters using 0.05% Triton X 100 surfactant solution.
Pots to be treated are moist but not saturated. To each of four pots, five milliliters of the appropriate chemical solution is pipetted to the media surface making sure to avoid contact with the base of the plant. Immediately following chemical application, using a mist nozzle, the pot surface is wetted sufficiently to saturate the pot watering in the chemistry. The chemical application is done in the morning.
Nematode eggs, either SCN or RKN, are added to distilled water to create a concentration of 1000 vermiform eggs […]. At least four hours after chemical treatment the eggs are applied to the treated pots plus non-treated check plants. A small hole about 1 cm deep is punched into the pot surface. One milliliter of the nematode egg slurry is pipetted into the hole. Immediately afterwards the hole is gently covered. Watering of the test plants is then restricted to only water as needed to prevent wilt for a period of 24 hours. After the 24 hour restricted watering, normal sub-irrigation watering is done for the duration of the test.

Meloidogyne incognita [4] = test: Summer field evaluation of pre-plant incorporated compounds on squash; type: in vivo
Experimental: Test plots of 33 cm diameter holes were bored 41 cm deep into clay soil and filled with a mixture of 80% sand and 20% silt loam soil. Technical compound for each treatment was dissolved in 50 ml acetone containing 250 ul of Triton X-100 surfactant. This solution was added to 450 ml water and poured onto 95 liters of sand/soil mixture in a rotating drum mixer. While continuing to rotate the mixing drum 66 grams of chopped, galled, tomato roots was added and thoroughly distributed. The treated soil was sufficient to fill the top 15 cm of each of the 6 replicate plots, thus simulating a PPI treatment. The plots were then watered lightly and a mixture of M. incognita eggs and larvae were injected 5 cm deep at 5 points within the plot (100 k eggs/larvae in 10 ml per plot). Three-week old squash (cv. Liberator III) with 1 fully expanded true leaf was planted 4 days after soil treatment, one per plot.

[5] = system: CD-1/Swiss derived albino mice; type: in vivo; settings: 500 mg/kg oral, three female mice, observed up to 14 days
Experimental: Acute oral toxicity testing was performed in mice in accordance with test method P203.UDP, as administered by Eurofins/Product Safety Laboratories (Dayton, N.J.). CD-1/Swiss derived albino mice were obtained and group housed in suspended solid bottom caging. The mice were fed rodent chow and filtered tap water was supplied ad libitum. Following acclimation to the laboratory setting, a group of animals was fasted overnight by removing food from the cages. After the fasting period, three female mice were selected based on vitality and initial body weights. The individual compound doses were calculated from these body weights.
The test substance was prepared as a 1% (50 mg/kg) or 5% (500 mg/kg) weight to weight (w/w) mixture in a 0.5% w/w solution of carboxymethylcellulose (CMC) in distilled water. A tissue homogenizer was used to create a homogeneous mixture. A dose of 50 or 500 mg/kg was administered to three healthy mice per dose level by oral intubation using a ball-tipped gavage needle attached to a syringe. After administration, the animals were returned to their cages, and feed was replaced immediately after dosing.
Body weights were recorded prior to initiation and on Days 7 and 14 or a soon as possible after death.

[6] = L4 larvae, two days of exposure

Clc1ccc(-c2nnc(-c3cccs3)o2)cc1 [compound 4559]
Number of nematodes recovered from treated soil after 3 days incubation with the compound ([1]; 2 kg/ha): 39 | Number of nematodes recovered from treated soil after 3 days incubation with the compound ([1]; 4 kg/ha): 47 | Number of nematodes recovered from treated soil after 3 days incubation with the compound ([1]; 10 kg/ha): 33 | RG28 = % root galls at 28 days after treatment (Meloidogyne incognita [2]; 2 kg ai/ha drench, squash): 34.2% | RG43 = % root galls at 43 days after treatment (Meloidogyne incognita [2]; 2 kg ai/ha drench, squash): 24.0% | control of root galling compared with oxamyl at an equivalent rate (Meloidogyne incognita [2]; 2 kg/ha, 43 day time point): significantly better than oxamyl | 1 ppm gall ratings (Meloidogyne incognita [3]; Table 1B test a): 1^a (1=6-20%) | 8 ppm gall ratings (Meloidogyne incognita [3]; 8 ppm, average of triplicate gall rating, scale 0-3 (% root mass galled)): 0 (0=0-5%)

Cc1cc(Br)ccc1-c1noc(-c2cccs2)n1 [compound 5824]
EC50 L4 1D (C. elegans; L4 larvae): no | EC50 L4 2D (C. elegans; [6]): no

Clc1ccccc1-c1cnc(-c2ccco2)o1 [compound 5828]
EC50 L4 1D (C. elegans; L4 larvae): no | EC50 L4 3D (C. elegans; L4 larvae, three days of exposure): no | EC50 L4 2D (C. elegans; [6]): no

Cc1cc(F)ccc1-c1noc(-c2cccs2)n1 [compound 5845]
EC50 L1 1D (C. elegans): no | EC50 L4 1D (C. elegans; L4 larvae): no

Fc1ccc(-c2noc(-c3cccs3)n2)c(F)c1 [compound 5847]
EC50 L1 1D (C. elegans): no | EC50 L4 1D (C. elegans; L4 larvae): no

Fc1ccc(-c2noc(-c3ccco3)n2)c(F)c1 [compound 5849]
EC50 L4 1D (C. elegans; L4 larvae): no | EC50 L4 2D (F1) (C. elegans; L4 larvae, two days of exposure, effects on the second generation larvae (F1)): (6.3 F1) parts per million

Clc1ccc(-c2nsc(-c3ccco3)n2)c(Cl)c1 [compound 5960]
percent control (galling reduction) relative to the control blank treatment (root knot nematode (RKN); 0.05 kg/ha): — — 75^c percent | percent control (galling reduction) relative to the control blank treatment (root knot nematode (RKN); 0.1 kg/ha): — — 75^c percent | percent control (galling reduction) relative to the control blank treatment (root knot nematode (RKN); 0.25 kg/ha): — — 76^c percent | 0-3 vigor 16 DAP (Meloidogyne incognita [4]; 4 kg (kg/ha) PPI, squash): 3.0 | 0-3 vigor 21 DAP (Meloidogyne incognita [4]; 4 kg (kg/ha) PPI, squash): 3.0 | feeder root (3 = ave) 31 DAP (Meloidogyne incognita [4]; 4 kg (kg/ha) PPI, squash): 3.3 | gall % 31 DAP (Meloidogyne incognita [4]; 4 kg (kg/ha) PPI, squash): 24% | root wgt (g) 31 DAP (Meloidogyne incognita [4]; 4 kg (kg/ha) PPI, squash): 32.6 g | top wgt (lbs) 31 DAP (Meloidogyne incognita [4]; 4 kg (kg/ha) PPI, squash): 1.58 lbs | total fruit (lbs) (Meloidogyne incognita [4]; 4 kg (kg/ha) PPI, squash): 1.61 lbs | control of M. incognita (in words) (Meloidogyne incognita [4]; PPI application at 4 kg/ha): significant control | mortality, signs of gross toxicity and behavioral changes [5]: all animals survived, gained body weight, and appeared active and healthy | 1 ppm gall ratings (Meloidogyne incognita [3]; Table 1B test e): 0.33^e
